Test results as given in the NIST ThermoML archive (doi:10.1021/je200145r).

Assay: wn = mass fraction of the nth substance listed
Conditions: 101 kPa, Liquid; for viscosity: Capillary tube (Ostwald / Ubbelohde) method

C1COCCO1 [1,4-dioxane] + CO
Conditions	mass density, 298.15 K [kg/m3]	mass density, 303.15 K [kg/m3]	mass density, 308.15 K [kg/m3]	mass density, 313.15 K [kg/m3]	viscosity, 298.15 K [mPa·s]	viscosity, 303.15 K [mPa·s]	viscosity, 308.15 K [mPa·s]	viscosity, 313.15 K [mPa·s]
w1 = 0.1	811.2	806.4	801.7	796.9	0.55	0.511	0.473	0.432
w1 = 0.2	834.4	828.8	823.4	818.4	0.554	0.517	0.482	0.448
w1 = 0.3	852.5	847.4	842.6	838	0.565	0.527	0.489	0.452
w1 = 0.4	875.1	870.2	865.5	860.6	0.587	0.548	0.508	0.467
